Assay results published in US7030273B1, “Compounds with physiological cooling effect” (Qaroma, Inc, priority 2005, dated 2006).

Assays:
[1] = system: cold receptors of the skin and mucous membranes of the human body; test: Panel test of physiological cooling ability against WS-23, solutions applied orally; format: in vivo; set-up: key: + means the compound has equal or stronger cooling effect than WS-23; settings: 2000 ppm solution applied orally; panel of 5 people
Experimental: The following testing procedure is aimed at determining physiological cooling ability of testing compounds with regard to WS-23 ([…]). The tests are carried out on a selected panel of 5 people. The present test procedure is done on a statistical basis because sensitivity to cooling compounds will vary not only from compound to compound and from one part of the body to another, but from one individual to another as well. Tests of this nature are commonly used on the testing and quality control of the organoleptic properties, e.g. taste, smell of organic and inorganic food products.
1 g of each testing compound is dissolved in 99 g denatured ethanol to form 1% solution. 2 g such solution is then diluted with 8 g deionized water to form 2000 ppm solution. The solutions are then applied orally to determine the cooling effect.
To test the cooling activity of the compounds in this invention, the compounds prepared in this invention are tested repeatedly by the 5 selected panelists and the results are compared with WS-23.

tongue = test: Toothpicks soaked in compound solution, put on tongue; format: in vivo, human; settings: toothpick tips soaked in 5% solution in denatured ethanol, dried
Source text: Toothpick tips were soaked in 5% solution of Compound 3 in this invention in denatured ethanol for long enough to have enough deposition of the compound. The picks were then dried.

mouth = test: Mint candies containing the compound, cooling effect in the mouth; format: in vivo, human; settings: 0.02% in icing sugar candies
Experimental: Icing sugar was mixed with small amount of water at 50° C. to form a paste. 0.02% Compound 5 in this invention was added and stirred. Cooled to room temperature, the mixture hardened and was broken into smaller pieces.

Compound | Cooling ability compared to WS-23 [1] | cooling sensation on tongue (tongue) | melting point | cooling effect in the mouth (mouth)
CCOCCNC(=O)C(C)(C(C)C)C(C)C [Compound 3, N-(2-ethoxyethyl)-2,3-dimethyl-2-isopropylbutyramide] | + | pronounced cooling sensation | – | –
COCCCNC(=O)C(C)(C(C)C)C(C)C [Compound 5, N-(3-methoxypropyl)-2,3-dimethyl-2-isopropylbutyramide] | + | – | 10 °C | marked cooling effect in the mouth
CCOCCCNC(=O)C(C)(C(C)C)C(C)C [Compound 6, N-(3-ethoxypropyl)-2,3-dimethyl-2-isopropylbutyramide] | + | – | 30 °C | –
CC(C)OCCCNC(=O)C(C)(C(C)C)C(C)C [Compound 7, N-(3-isopropoxypropyl)-2,3-dimethyl-2-isopropylbutyramide] | + | – | 32 °C | –
CCCCOCCCNC(=O)C(C)(C(C)C)C(C)C [Compound 8, N-(3-butoxypropyl)-2,3-dimethyl-2-isopropylbutyramide] | + | – | 40 °C | –
